Key:
Format in all cases: functional
[1] = Synergistic anticancer activity against mouse RCaP cells assessed as cell growth inhibition at 1.25 uM measured after 72 hrs in presence of 0.00001 uM of topotecan by MTT assay relative to control; conditions: read-out: GI
[2] = Synergistic anticancer activity against mouse RCaP cells assessed as cell growth inhibition at 1.25 uM measured after 72 hrs in presence of 0.0001 uM of topotecan by MTT assay relative to control; conditions: read-out: GI
[3] = system: PC-3; assay: Synergistic anticancer activity against human PC-3 cells assessed as cell growth inhibition at 1.25 uM measured after 72 hrs in presence of 0.0001 uM of topotecan by MTT assay relative to control; conditions: read-out: GI
[4] = Cytotoxicity against mouse RCaP cells assessed as cell growth inhibition at 0.625 uM measured after 72 hrs by MTT assay relative to control; conditions: read-out: GI
[5] = Synergistic anticancer activity against mouse RCaP cells assessed as cell growth inhibition at 1.25 uM measured after 72 hrs in presence of 0.1 uM of topotecan by MTT assay relative to control; conditions: read-out: GI
[6] = system: PC-3; assay: Synergistic anticancer activity against human PC-3 cells assessed as cell growth inhibition at 1.25 uM measured after 72 hrs in presence of 0.001 uM of topotecan by MTT assay relative to control; conditions: read-out: GI
[7] = system: PC-3; assay: Synergistic anticancer activity against human PC-3 cells assessed as cell growth inhibition at 0.625 uM measured after 72 hrs in presence of 10 uM of topotecan by MTT assay relative to control; conditions: read-out: GI
[8] = Synergistic anticancer activity against mouse RCaP cells assessed as cell growth inhibition at 0.625 uM measured after 72 hrs in presence of 0.0001 uM of topotecan by MTT assay relative to control; conditions: read-out: GI
[9] = system: PC-3; assay: Cytotoxicity against human PC-3 cells assessed as cell growth inhibition at […] measured after 72 hrs by MTT assay relative to control; conditions: dose 2.5 µM, read-out: GI
[10] = system: PC-3; assay: Synergistic anticancer activity against human PC-3 cells assessed as cell growth inhibition at […] measured after 72 hrs in presence of 0.001 uM of topotecan by MTT assay relative to control; conditions: dose 2.5 µM, read-out: GI
[11] = Synergistic anticancer activity against mouse RCaP cells assessed as cell growth inhibition at 0.625 uM measured after 72 hrs in presence of 0.1 uM of topotecan by MTT assay relative to control; conditions: read-out: GI
[12] = system: PC-3; assay: Synergistic anticancer activity against human PC-3 cells assessed as cell growth inhibition at 1.25 uM measured after 72 hrs in presence of 0.00001 uM of topotecan by MTT assay relative to control; conditions: read-out: GI
[13] = Synergistic anticancer activity against mouse RCaP cells assessed as cell growth inhibition at 0.625 uM measured after 72 hrs in presence of 1 uM of topotecan by MTT assay relative to control; conditions: read-out: GI
[14] = system: PC-3; assay: Synergistic anticancer activity against human PC-3 cells assessed as cell growth inhibition at 0.625 uM measured after 72 hrs in presence of 0.1 uM of topotecan by MTT assay relative to control; conditions: read-out: GI
[15] = system: PC-3; assay: Synergistic anticancer activity against human PC-3 cells assessed as cell growth inhibition at […] measured after 72 hrs in presence of 0.01 uM of topotecan by MTT assay relative to control; conditions: dose 2.5 µM, read-out: GI
[16] = system: PC-3; assay: Synergistic anticancer activity against human PC-3 cells assessed as cell growth inhibition at 1.25 uM measured after 72 hrs in presence of 10 uM of topotecan by MTT assay relative to control; conditions: read-out: GI
[17] = system: PC-3; assay: Synergistic anticancer activity against human PC-3 cells assessed as cell growth inhibition at 0.625 uM measured after 72 hrs in presence of 1 uM of topotecan by MTT assay relative to control; conditions: read-out: GI
[18] = Synergistic anticancer activity against mouse RCaP cells assessed as cell growth inhibition at 0.625 uM measured after 72 hrs in presence of 0.00001 uM of topotecan by MTT assay relative to control; conditions: read-out: GI
[19] = system: PC-3; assay: Synergistic anticancer activity against human PC-3 cells assessed as cell growth inhibition at 1.25 uM measured after 72 hrs in presence of 0.01 uM of topotecan by MTT assay relative to control; conditions: read-out: GI
[20] = system: PC-3; assay: Synergistic anticancer activity against human PC-3 cells assessed as cell growth inhibition at […] measured after 72 hrs in presence of 0.00001 uM of topotecan by MTT assay relative to control; conditions: dose 2.5 µM, read-out: GI
[21] = system: PC-3; assay: Cytotoxicity against human PC-3 cells assessed as cell growth inhibition at 1.25 uM measured after 72 hrs by MTT assay relative to control; conditions: read-out: GI
[22] = system: PC-3; assay: Synergistic anticancer activity against human PC-3 cells assessed as cell growth inhibition at 0.625 uM measured after 72 hrs in presence of 0.0001 uM of topotecan by MTT assay relative to control; conditions: read-out: GI
[23] = system: PC-3; assay: Cytotoxicity against human PC-3 cells assessed as cell growth inhibition at 0.625 uM measured after 72 hrs by MTT assay relative to control; conditions: read-out: GI
[24] = system: PC-3; assay: Synergistic anticancer activity against human PC-3 cells assessed as cell growth inhibition at 1.25 uM measured after 72 hrs in presence of 1 uM of topotecan by MTT assay relative to control; conditions: read-out: GI
[25] = Synergistic anticancer activity against mouse RCaP cells assessed as cell growth inhibition at 0.625 uM measured after 72 hrs in presence of 0.01 uM of topotecan by MTT assay relative to control; conditions: read-out: GI
[26] = system: PC-3; assay: Synergistic anticancer activity against human PC-3 cells assessed as cell growth inhibition at 0.625 uM measured after 72 hrs in presence of 0.001 uM of topotecan by MTT assay relative to control; conditions: read-out: GI
[27] = Synergistic anticancer activity against mouse RCaP cells assessed as cell growth inhibition at 0.625 uM measured after 72 hrs in presence of 0.001 uM of topotecan by MTT assay relative to control; conditions: read-out: GI
[28] = system: PC-3; assay: Synergistic anticancer activity against human PC-3 cells assessed as cell growth inhibition at […] measured after 72 hrs in presence of 1 uM of topotecan by MTT assay relative to control; conditions: dose 2.5 µM, read-out: GI
[29] = system: PC-3; assay: Synergistic anticancer activity against human PC-3 cells assessed as cell growth inhibition at […] measured after 72 hrs in presence of 10 uM of topotecan by MTT assay relative to control; conditions: dose 2.5 µM, read-out: GI
[30] = Synergistic anticancer activity against mouse RCaP cells assessed as cell growth inhibition at 1.25 uM measured after 72 hrs in presence of 1 uM of topotecan by MTT assay relative to control; conditions: read-out: GI
[31] = Synergistic anticancer activity against mouse RCaP cells assessed as cell growth inhibition at 1.25 uM measured after 72 hrs in presence of 10 uM of topotecan by MTT assay relative to control; conditions: read-out: GI
[32] = system: PC-3; assay: Synergistic anticancer activity against human PC-3 cells assessed as cell growth inhibition at 0.625 uM measured after 72 hrs in presence of 0.01 uM of topotecan by MTT assay relative to control; conditions: read-out: GI
[33] = system: PC-3; assay: Synergistic anticancer activity against human PC-3 cells assessed as cell growth inhibition at 0.625 uM measured after 72 hrs in presence of 0.00001 uM of topotecan by MTT assay relative to control; conditions: read-out: GI
[34] = system: PC-3; assay: Synergistic anticancer activity against human PC-3 cells assessed as cell growth inhibition at 1.25 uM measured after 72 hrs in presence of 0.1 uM of topotecan by MTT assay relative to control; conditions: read-out: GI

COc1ccccc1[C@H]1[C@H](C(=O)O)[C@H](c2ccccc2OC)[C@H]1C(=O)Oc1cc(-c2ccc3c(c2)OCO3)ccc1-c1ccccc1
inhibition of growth at 1.25 µM [1]: -1.87% | inhibition of growth at 1.25 µM [2]: -1.6% | inhibition of growth at 1.25 µM [3]: 14.7% | inhibition of growth at 0.625 µM [4]: -2.53% | inhibition of growth at 1.25 µM [5]: 90% | inhibition of growth at 1.25 µM [6]: 33.1% | inhibition of growth at 0.625 µM [7]: 93.2% | inhibition of growth at 0.625 µM [8]: -3.7% | inhibition of growth at […] [9]: 7.37% | inhibition of growth at […] [10]: 34.3% | inhibition of growth at 0.625 µM [11]: 90.2% | inhibition of growth at 1.25 µM [12]: 12.9% | inhibition of growth at 0.625 µM [13]: 97.9% | inhibition of growth at 0.625 µM [14]: 69.4% | inhibition of growth at […] [15]: 54.6% | inhibition of growth at 1.25 µM [16]: 93.4% | inhibition of growth at 0.625 µM [17]: 90.2% | inhibition of growth at 0.625 µM [18]: -2.77% | inhibition of growth at 1.25 µM [19]: 55.8% | inhibition of growth at […] [20]: 15.1% | inhibition of growth at 1.25 µM [21]: -2.3% | inhibition of growth at 0.625 µM [22]: 8.03% | inhibition of growth at 0.625 µM [23]: -2.63% | inhibition of growth at 1.25 µM [24]: 92.3% | inhibition of growth at 0.625 µM [25]: 10% | inhibition of growth at 0.625 µM [26]: 16.9% | inhibition of growth at 0.625 µM [27]: -4.87% | inhibition of growth at […] [28]: 90.5% | inhibition of growth at […] [29]: 92.9% | inhibition of growth at 1.25 µM [30]: 97.6% | inhibition of growth at 1.25 µM [31]: 99.2% | inhibition of growth at 0.625 µM [32]: 48% | inhibition of growth at 0.625 µM [33]: 1.6% | inhibition of growth at 1.25 µM [34]: 72.5%

Reference: ChEMBL document CHEMBL6109109, “Fatty acid binding protein 5 inhibitors as novel anticancer agents against metastatic castration-resistant prostate cancer” (Bioorg Med Chem, 2025)
